Measured values as given in US20030217372A1, “Methods of using alpha 1b-adrenergic receptors” (priority 2002, published 2003).
Structures can show the parent of a compound that is named as a salt.

How the values were obtained:
WT and α1b-AR KO mice [1] = assay: Locomotor activity in circular corridor after acute drug injection; assay type: in vivo; details: for amplitude of locomotor response, α1b-AR KO vs WT mice: D-amphetamine 2 and 3 mg/kg, cocaine and morphine independent of dose
Experimental: FIG. 2 is a series of dose response graphs that depicts the results of locomotor response to novelty, saline, scopolamine and chloro-APB experiments in WT and α1b-AR KO mice. […] Animals were placed in the experimental apparatus for 90 minutes, received a saline injection and were replaced in the apparatus for 60 minutes. On the following day, animals were placed in the experimental apparatus for 90 minutes, they received an intraperitoneal injection of either saline or scopolamine (1 mg/kg) and their locomotor response was measured every 5 minutes for 60 minutes. FIG. 2D represents the results of locomotor response to chloro-APB; animals were placed in the experimental apparatus for 90 minutes, received a saline injection and were replaced in the apparatus for 60 minutes. On the following days, animals were placed in the experimental apparatus for 90 minutes, they received an intraperitoneal injection of chioro-APB and their locomotor response was measured every 5 minutes for 60 minutes. Several doses of chloro-APB were tested on consecutive days in a random order.
Independent groups of animals were used for each treatment to avoid eventual behavioral sensitization (N=6-16 per group).
(§1) Mice were introduced in a circular corridor (4.5 cm width, 17 cm external diameter) crossed by four infrared beams (1.5 cm above the base) placed at every 90° (Imetronic, Pessac, France). The locomotor activity was counted when animals interrupted two successive beams and, thus, had traveled ¼ of the circular corridor. In each session, the spontaneous activity was recorded for 90 minutes, before mice received either saline or drugs. Their activity was recorded for an additional 60 minutes or 120 minutes period. The first session was a session of habituation to the experimental procedure during which animals received saline (˜3 ml/kg, i.p.). The locomotor response to a drug administration was measured on the following day. Tests were performed between 12:00 and 6:00 p.m. in stable conditions of temperature and humidity.

WT and α1b-AR KO mice [2] = assay: Oral consumption, two-bottle choice paradigm; assay type: in vivo; details: cocaine 0.2 mg/ml, morphine 0.15 mg/ml
Experimental: Fluid intake was measured daily by weighting bottles, mice being housed individually. Tested solutions were replaced twice weekly.
Cocaine and morphine: For two weeks, bottles were filled with cocaine or morphine solution of decreasing concentration (one dose per week; 0.3 mg/ml then 0.2 mg/ml for cocaine and 0.2 mg/ml and 0.15 mg/ml for morphine) instead of water, so that mice accustom to the bitter taste. […] Then, to determine mean water consumption and eliminate basal side preference, two bottles of water were given for three days to each animal and basal consumption was calculated as the mean consumption from one bottle on day 2 and the other on day 3. Preference for cocaine (0.2 mg/ml) or morphine (0.15 mg/ml) was then measured over two 12-day sessions, drug and water sides being exchanged between the 2 sessions. Means of drug and water consumptions were estimated for the last 5 days of both 12-day periods.
Rewarding properties of cocaine and morphine were assessed in a two-bottle choice paradigm adapted from the method described by Ferraro et al. (Ferraro et al., Pharmacol. Biochem. Behav. 66:397-401, 2000) for cocaine and Borg and Taylor (Borg et al., Biochem. Behav. 47:633-46, 1994) for morphine.

WT and α1b-AR KO mice [3] = assay: Locomotor sensitization induced by repeated drug administration; assay type: in vivo
Experimental: Animals spent 90 minutes in the experimental apparatus, received a saline injection and were replaced in the apparatus for 60 minutes. […] Four similar sessions took place every other day. The sixth session took place after a 10-day withdrawal. Locomotor responses measured during the first hour following each injection are presented in function of the number of injections and slope values. N=6 to 15 animals per group.
N=6 to 12 animals per group. […] FIG. 6B represents the time course of the locomotor responses measured every 5 minutes.
as §1
Data were analyzed with Student's t-test or analysis of variance. For behavioral sensitization experiments, correlation between the number of drug injections and the amplitude of the locomotor responses was analyzed with linear regression and the influence of genotype on this correlation with an analysis of covariance. Genotype and prazosin treatments were between-subjects factors. […] Differences were considered significant when p<0.05.
The rate of sensitization was evaluated by determining the slope of the “number of injections/response” curve (FIG. 5).

WT and α1b-AR KO mice [4] = assay: Morphine-induced conditioned place preference (Y maze); assay type: in vivo; details: for conditioned place preference (CPP): morphine 5 mg/kg s.c.; for locomotor activity during conditioning sessions, morphine vs saline: repeated morphine 5 mg/kg s.c.
Experimental: FIG. 8 is a series of histograms and dose response graphs that represents the results of a conditioned place preference experiment induced by morphine in WT and α1b-AR KO mice. WT and α1b-AR KO mice were conditioned to receive morphine (5 mg/kg s.c.) in a compartment and a saline injection in the other compartment. The saline group received saline injections in both compartments. N=6 to 11 animals per group. The upper left graph show the time spent in the morphine-associated compartment before conditioning (pre-test), after four morphine injections and four saline injections (post-test 1) and after two supplementary morphine and two supplementary saline injections (post-test 2). *p<0.05 and **p<0.01 when time spent in the drug compartment was different between pretest and post-test 1 or 2 (paired Student's t-test). The upper right graph show scores that correspond to the time spent in the morphine compartment during the post-test (1 and 2) minus time spent in the morphine compartment during the pre-test. p<0.05 when scores were higher for morphine treated mice than for saline treated mice (unpaired Student's t-test). The lower left and lower right graphs show the locomotor activity measured during the 30 minutes of each of the 12 conditioning sessions corresponding either to morphine or to saline injection. ***p<0.001 locomotor activity measured during the morphine session was higher than during the corresponding saline session (paired Student's t-test).
Conditioned place preference was measured in a Y maze. Mice were habituated to the experimental apparatus (Imetronic, Pessac, France) for 3 days (1 hour of exploration of the maze with neutral cues, i.e. smooth gray walls and floor). On the following day, animals were allowed to freely explore the two compartments (with different visual and tactile cues) of the maze for 20 minutes corresponding to a pre-conditioning test. The total amount of time spent in each compartment was recorded and analyzed as previously described (Valverde et al., Psychopharmacology (Berlin) 123:119-26, 1996). For the next […] corresponding to the conditioning session, mice alternatively received morphine (5 mg/kg; s.c.) in one compartment and saline in the other compartment the following day. According to the unbiased method, morphine was equally associated to both compartments and was given either first or second, mice being confined in one compartment for the 30 minutes following each injection. One day after the end of the conditioning session, mice were submitted to a post-conditioning test identical to the test performed before conditioning, i.e. each mice being allowed to explore both compartments for 20 minutes. […] Locomotor activities were recorded with electronic cells in each conditioning session.

α1b-ARs = target: T1, α1b-ARs (Mus musculus, UniProt P97717); assay: Prazosin effect on locomotor responses to D-amphetamine, cocaine and morphine; assay type: in vivo, mice; details: prazosin 1 mg/kg i.p. pre-treatment
T1 construct: endogenous in cells; host or cells: living adult male WT mice (129/Sv x C57BL/6J mixed background), in vivo; α1b-AR KO mice as comparison
T1 sequence (P97717 1-514): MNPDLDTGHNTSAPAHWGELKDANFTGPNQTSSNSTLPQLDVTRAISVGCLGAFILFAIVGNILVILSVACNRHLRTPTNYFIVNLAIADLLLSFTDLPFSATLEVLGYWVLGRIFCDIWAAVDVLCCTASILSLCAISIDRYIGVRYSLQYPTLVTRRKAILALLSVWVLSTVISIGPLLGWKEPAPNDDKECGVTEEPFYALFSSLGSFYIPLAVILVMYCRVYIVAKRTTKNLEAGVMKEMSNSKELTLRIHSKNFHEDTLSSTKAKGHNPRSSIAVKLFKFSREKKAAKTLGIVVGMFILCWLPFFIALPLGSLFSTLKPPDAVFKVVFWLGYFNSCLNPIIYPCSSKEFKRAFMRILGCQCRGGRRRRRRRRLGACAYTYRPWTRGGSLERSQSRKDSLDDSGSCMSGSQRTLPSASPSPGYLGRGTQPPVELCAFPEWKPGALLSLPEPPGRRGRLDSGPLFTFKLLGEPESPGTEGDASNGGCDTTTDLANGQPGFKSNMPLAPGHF
Experimental: Animals were placed in the experimental apparatus for 150 minutes, received two saline injections after 60 minutes and 90 minutes spent in the corridor. On the following day, animals were placed in the experimental apparatus for 60 minutes, they received an intrapenitoneal injection of either saline or prazosin (1 mg/kg) and were replaced in the corridor for 30 minutes. […] Independent groups of animals were used for each treatment to avoid eventual behavioral sensitization (N=6-12 per group).
as §1, with “In each session, the spontaneous activity was recorded for 90 minutes, before mice received either saline or drugs.” left out

α1-adrenergic receptors = details: cited from earlier work
[5] = α1b-AR KO mice, i.p., different doses

Br.C=CCN1CCc2c(cc(O)c(O)c2Cl)C(c2ccccc2)C1 (stereo not shown) [chloro-APB, chloro-APB hydrobromide]
locomotor activity (WT and α1b-AR KO mice [1]; WT mice, chloro-APB i.p., several doses): dose-dependently increase locomotor activity | amplitudes of locomotor responses, WT vs α1b-AR KO mice (WT and α1b-AR KO mice [1]; chloro-APB i.p., several doses): No significant differences

COC(=O)[C@H]1[C@@H](OC(=O)c2ccccc2)C[C@@H]2CC[C@H]1N2C.Cl [cocaine, cocaine hydrochloride]
drug consumption vs water in two-bottle choice (rewarding properties) (WT and α1b-AR KO mice [2]; KO mice): aversion | drug consumption vs water in two-bottle choice (rewarding properties) (WT and α1b-AR KO mice [2]; WT mice): exhibited a preference | locomotor responses of drug-treated vs naive mice (WT and α1b-AR KO mice [3]; KO mice, cocaine 5 mg/kg, 5 previous drug injections): no significant difference | rate of sensitization: slope of the number of injections/response curve (WT and α1b-AR KO mice [3]; WT mice, cocaine 5 mg/kg): 101.0±47.4 | rate of sensitization: slope of the number of injections/response curve (WT and α1b-AR KO mice [3]; WT mice, cocaine 15 mg/kg): 198.2±48.19 | rate of sensitization: slope of the number of injections/response curve (WT and α1b-AR KO mice [3]; α1b-AR KO mice, cocaine 5 mg/kg): −0.155±20.96 | rate of sensitization: slope of the number of injections/response curve (WT and α1b-AR KO mice [3]; α1b-AR KO mice, cocaine 15 mg/kg): 102.8±19.37 | amplitude of locomotor response, α1b-AR KO vs WT mice (WT and α1b-AR KO mice [1]): significantly altered by the genotype | locomotor activity (WT and α1b-AR KO mice [1]; WT mice, i.p., different doses): dose-dependent stimulation of locomotor activity | locomotor activity (WT and α1b-AR KO mice [1]; [5]): also increased locomotor activity

CN1CC[C@]23c4c5ccc(O)c4O[C@H]2[C@@H](O)C=C[C@H]3[C@H]1C5 [morphine, morphine chiorhydrate]
drug consumption vs water in two-bottle choice (rewarding properties) (WT and α1b-AR KO mice [2]; KO mice): aversion | rate of sensitization: slope of the number of injections/response curve (WT and α1b-AR KO mice [3]; WT mice, morphine 7.5 mg/kg): 146.7±51.4 | rate of sensitization: slope of the number of injections/response curve (WT and α1b-AR KO mice [3]; α1b-AR KO mice, morphine 7.5 mg/kg): 38.17±19.48 | amplitude of locomotor response, α1b-AR KO vs WT mice (WT and α1b-AR KO mice [1]): significantly altered by the genotype | stereotyped walking behavior (WT and α1b-AR KO mice [1]; KO mice): induced a stereotyped walking behavior | locomotor activity (WT and α1b-AR KO mice [1]; WT mice, i.p., different doses): dose-dependent stimulation of locomotor activity | locomotor activity (WT and α1b-AR KO mice [1]; [5]): also increased locomotor activity | conditioned place preference (CPP) (WT and α1b-AR KO mice [4]; KO mice): not in KO mice | locomotor activity during conditioning sessions, morphine vs saline (WT and α1b-AR KO mice [4]; KO mice): no significant difference | conditioned place preference (CPP) (WT and α1b-AR KO mice [4]; WT mice): significant CPP was induced | locomotor activity during conditioning sessions, morphine vs saline (WT and α1b-AR KO mice [4]; WT mice): induce a behavioral sensitization in WT

COc1cc2nc(N3CCN(C(=O)c4ccco4)CC3)nc(N)c2cc1OC [prazosin]
effect on locomotor response to D-amphetamine (α1b-ARs; WT mice, D-amphetamine 3 mg/kg): significantly reduced | effect on locomotor response to cocaine (α1b-ARs; WT mice, cocaine 20 mg/kg): significantly reduced | effect on locomotor response to morphine (α1b-ARs; WT mice, morphine 10 mg/kg): significantly reduced | effect on locomotor responses to D-amphetamine, cocaine and morphine (α1b-ARs; α1b-AR KO mice): failed to modify | behavioral sensitization with prazosin co-administered with repeated cocaine or D-amphetamine injections (α1-adrenergic receptors; background statement): no behavioral sensitization is observed | locomotor hyperactivity induced by D-amphetamine, cocaine, GBR12783 and morphine (α1-adrenergic receptors; background statement): completely inhibits | D-amphetamine-induced locomotor hyperactivity and extracellular DA responses in the nucleus accumbens (α1-adrenergic receptors; rats, Darracq et al. 1998): inhibits D-amphetamine-induced locomotor hyperactivity without modifying extracellular DA responses

CN1[C@@H]2C[C@@H](OC(=O)[C@H](CO)c3ccccc3)C[C@H]1[C@@H]1O[C@@H]12 [scopolamine, scopolamine hydrobromide]
stimulatory effect on locomotor activity, WT vs α1b-AR KO mice (WT and α1b-AR KO mice [1]; scopolamine 1 mg/kg i.p., 60 minutes): equivalent
